Laboratory results taken from ChEMBL document CHEMBL1125905, “Synthesis, conformational properties, and antibody recognition of peptides containing beta-turn mimetics based on alpha-alkylproline derivatives” (J Med Chem, 1991).

Columns and labels:
[1] = Dissociation constant (Kd) for the equilibrium binding to the monoclonal antibodies DB19/1 which were raised in mice was determined; design: species or system Mus musculus
[2] = Dissociation constant (Kd) for the equilibrium binding to the monoclonal antibodies DB19/25 which were raised in mice was determined; design: species or system Mus musculus

With CC(=O)N[C@@H](Cc1ccc(O)cc1)C(=O)N1CCC[C@H]1C(=O)N[C@@H](Cc1ccc(O)cc1)C(=O)N[C@@H](CC(=O)O)C(=O)N[C@@H](C(=O)N1CCC[C@@H]1C(=O)N[C@H](CC(=O)O)C(=O)N[C@H](Cc1ccc(O)cc1)C(=O)N[C@H](C)C(=O)O)C(C)C the Kd [1] was 180 nM and the Kd [2] was 18 nM.

In the case of CC(=O)N[C@@H](Cc1ccc(O)cc1)C(=O)N(C)[C@@H](C)C(=O)N[C@@H](Cc1ccc(O)cc1)C(=O)N[C@@H](CC(=O)O)C(=O)N[C@@H](C(=O)N1CCC[C@@H]1C(=O)N[C@H](CC(=O)O)C(=O)N[C@H](Cc1ccc(O)cc1)C(=O)N[C@H](C)C(=O)O)C(C)C, the Kd [1] is reported as 4200 nM and the Kd [2] is reported as 600 nM.

Work on CC(=O)N[C@@H](Cc1ccc(O)cc1)C(=O)N1CCC[C@H]1C(=O)N[C@@H](Cc1ccc(O)cc1)C(=O)N[C@@H](CC(=O)O)C(=O)N[C@@H](C(=O)N(C)[C@@H](C)C(=O)N[C@H](CC(=O)O)C(=O)N[C@H](Cc1ccc(O)cc1)C(=O)N[C@H](C)C(=O)O)C(C)C yielded a Kd [1] of 88 nM and a Kd [2] of 38 nM.

CC(=O)N[C@@H](Cc1ccc(O)cc1)C(=O)N1CCC[C@@]1(C)C(=O)N[C@@H](Cc1ccc(O)cc1)C(=O)N[C@@H](CC(=O)O)C(=O)N[C@@H](C(=O)N1CCC[C@@H]1C(=O)N[C@H](CC(=O)O)C(=O)N[C@H](Cc1ccc(O)cc1)C(=O)N[C@H](C)C(=O)O)C(C)C gave a Kd [1] of 3.6 nM and a Kd [2] of 5.7 nM.
